The results in this text go back to US10392443B2, “Diagnostic and therapeutic tool for cancer” (Agency for Science, Technology and Research, priority 2014, dated 2019).

The test relates to MHCC-LM3 cells. Briefly: Fibronectin attachment with recombinant Agrin coat, Western blot. The class given is cell-based, human. Particulars: Agrin depleted MHCC-LM3 cells; fibronectin supplemented with 20 μg/ml recombinant Agrin as ECM coat; 2 h post plating. The procedure:
72 h post transfections, cell lysates were analysed for indicated proteins; (b and c) show Western blot analysis of control or Agrin depleted MHCC-LM3 cells, which were serum starved overnight, trypsinized and plated on fibronectin or fibronectin supplemented with 20 μg/ml recombinant Agrin coated surface. […] Representative images under 20× magnification are shown and results quantitated using Image J software (P value=0.005). Thus, FIG. 6 validates the role of Agrin as an ECM sensor regulating focal adhesion, cell spreading and invasion to affect EMT program in HCC cell lines.
Briefly, culture plates were coated with 10 μg/ml fibronectin for 1 h at 37° C. Either control or Agrin knockdown cells (2*10^3 cells/ml) were trypsinized and plated on coated dishes. Adhered cells were analysed either by live cell imaging for morphological changes at indicated time-points or lysates were collected and subjected to Western blot analysis.
(Immunoblotting shows a protein as a band on a membrane.)

On to “recombinant Agrin: Pure recombinant Agrin protein obtained from MyBiosource”, for which the “activation of focal adhesion kinase and Arp2/3” value is “substantially increased”.
